From publication PMC11192711, “Automated radiosynthesis and preclinical evaluation of two new PSMA-617 derivatives radiolabelled via [^18F]AlF^2+ method” (EJNMMI Radiopharmacy and Chemistry, 2024) come the findings set out here.

The assay has as its target T1, PSMA (Homo sapiens, UniProt Q04609).
T1 construct: expressed in transfected cells; host or cells: PC3-PIP cells (PC3 stably expressing PSMA), fixed with 0.2% glutaraldehyde
The experiment in a line: Competitive cell binding assay on fixed PC3-PIP cells against [^18F]F-PSMA-1007. The conditions noted are these: 0.75 nM [^18F]F-PSMA-1007, 60 min room temperature, read-out: inhibition potency toward PMSA (IC50). How it is done:
Competitive cell binding experiments were conducted using PC3-PIP cells, [^18F]F-PSMA-1007, 300 nM PSMA-1007, and 8 different concentrations of PSMA-617-NODA (7) and PSMA-617-RESCA (9) (0, 0.01, 0.1, 1, 10, 100, 1000, 10,000 nM).
For in vitro uptake, the PC3-PIP cell line, which is isogenic to PC3 and stably expresses PSMA(Ghosh et al. [2005]), and PC-3 cell line (PSMA negative) were used. 40.000 PC3-PIP and PC3 cells were seeded in 96-well cell culture plates and at the confluence were fixed adding 100 µl of 0.2% glutaraldehyde in PBS to medium. After 5 min incubation at 37 °C, the cells were washed six times with PBS. Then 200 µl of 0.1 M Glycine in PBS with 0.02% of sodium azide were added. After 5 min, the cells were washed 6 times with PBS and finally 250 µl of 1% BSA in PBS with 0.2% of sodium azide were added. The competitive cell binding assays were performed as follows: PC3-PIP fixed cells were incubated with [^18F]F-PSMA-1007 at a concentration of 0.75 nM in the presence of 8 different concentrations of PSMA-617-NODA (7) and PSMA-617-RESCA (9) (0, 0.01, 0.1, 1, 10, 100, 1000, 10,000 nM) and of 300 nM of PSMA-1007. […] The activity in the supernatants and cell pellets was determined using a gamma counter (1282 Compugamma CS, LKB Wallac, Finland). Cellular uptake was calculated as the percentage of radioactivity in cell pellets. […]

T1 sequence (Q04609 whole entry): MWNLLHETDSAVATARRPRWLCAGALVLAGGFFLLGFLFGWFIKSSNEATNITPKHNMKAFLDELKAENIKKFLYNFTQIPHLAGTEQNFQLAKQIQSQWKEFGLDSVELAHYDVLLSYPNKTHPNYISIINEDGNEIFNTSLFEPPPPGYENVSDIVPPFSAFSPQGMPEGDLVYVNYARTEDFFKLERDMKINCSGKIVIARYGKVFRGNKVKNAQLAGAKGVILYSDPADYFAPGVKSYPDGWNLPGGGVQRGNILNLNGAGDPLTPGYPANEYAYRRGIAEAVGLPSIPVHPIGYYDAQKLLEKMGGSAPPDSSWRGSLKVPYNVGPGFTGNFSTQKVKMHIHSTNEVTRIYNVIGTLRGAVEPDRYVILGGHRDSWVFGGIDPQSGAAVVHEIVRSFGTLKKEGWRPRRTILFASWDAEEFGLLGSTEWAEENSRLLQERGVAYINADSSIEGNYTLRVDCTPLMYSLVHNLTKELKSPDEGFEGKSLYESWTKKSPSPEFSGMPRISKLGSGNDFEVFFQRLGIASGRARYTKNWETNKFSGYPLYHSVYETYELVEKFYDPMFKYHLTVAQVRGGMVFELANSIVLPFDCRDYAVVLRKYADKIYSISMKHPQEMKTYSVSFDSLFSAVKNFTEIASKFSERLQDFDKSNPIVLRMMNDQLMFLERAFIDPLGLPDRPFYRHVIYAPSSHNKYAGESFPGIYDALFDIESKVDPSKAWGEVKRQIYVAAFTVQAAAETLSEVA

On to `O=C(O)CCC(NC(=O)NC(CCCCNC(=O)C(Cc1ccc2ccccc2c1)NC(=O)C1CCC(CNC(=O)Cc2ccc(CN(CC(=O)O)C3CCCCC3N(CC(=O)O)CC(=O)O)cc2)CC1)C(=O)O)C(=O)O` [PSMA-617-RESCA, (((S)-5-((S)-2-((1R,4S)-4-((2-(4-((((1R,2R)-2-(bis(carboxymethyl)amino)cyclohexyl)(carboxymethyl)amino)methyl)phenyl)acetamido)methyl)cyclohexane-1-carboxamido)-3-(naphthalen-2-yl)propanamido)-1-carboxypentyl)carbamoyl)-L-glutamic acid], for which the IC50 (in general, the concentration at which inhibition is half-maximal) amounted to 20 nM.
